Columns and labels:
hMCP-1 mRNA = assay: Inhibition of hMCP-1 mRNA transcription in human peripheral blood mononuclear cells; type: cell-based; set-up: key: Active: Compounds with an IC50 value less than 30 μM were deemed to be active.; Not Active: Compounds with an IC50 value less than 30 μM were deemed to be active; conditions: 3 h
Protocol: In this example, hMCP-1 mRNA in human peripheral blood mononuclear cells was quantitated to measure the transcriptional inhibition of hMCP-1 when treated with a compound of the present disclosure.
Human Peripheral Blood Mononuclear Cells were plated (1.0×10^5 cells per well) in a 96-well plate in 45 μL RPMI-1640 containing 10% FBS and penicillin/streptomycin. The cells were treated with the test compound (45 μL at 2× concentration), and then the cells were incubated at 37° C. for 3 h before the cells were harvested. At time of harvest, cells were transferred to V-bottom plates and centrifuged at 800 rpm for 5 minutes. Spent media was removed and cell lysis solution (70 μL) was added the cells in each well and incubated for 5-10 min at room temperature, to allow for complete cell lysis and detachment. mRNA was then prepared using the “mRNA Catcher PLUS plate” (Invitrogen), according to the protocol supplied. After the last wash, as much wash buffer as possible was aspirated without allowing the wells to dry. […]
The eluted mRNA isolated was then used in a one-step quantitative real-time PCR reaction, using components of the Ultra Sense Kit together with Applied Biosystems primer-probe mixes. Real-time PCR data was analyzed, normalizing the Ct values for hMCP-1 to an internal control, prior to determining the fold induction of each unknown sample, relative to the control.

Brd4 bromodomain 1 = molecular target: T1, Brd4 bromodomain 1 (Homo sapiens, UniProt O60885); assay: Inhibition of tetra-acetylated histone H4 binding to BET bromodomains (TR-FRET); set-up: key: Active: Compounds with an IC50 value less than 30 μM were deemed to be active.; Not Active: Compounds with an IC50 value less than 30 μM were deemed to be active; conditions: first bromodomain of Brd4, tetra-acetylated histone H4 peptide
T1 construct: made in house; host or cells: E. coli BL21(DE3)
Method in brief: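 TR-FRET with N-terminally His-tagged bromodomains (200 nM, E. coli-expressed, Ni affinity and SEC-purified) and biotinylated tetra-acetylated histone H4 peptide (25–50 nM), detected with Eu-cryptate streptavidin and XL665 anti-His antibody. Buffer 30 mM HEPES pH 7.4, 320 mM KF, 0.08% BSA, 0.2% DMSO; 2 h RT. IC50 from decrease in 665/620 nm ratio.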

Structure (SMILES): COc1cc(OC)c2c(=O)[nH]c(-c3ccc(OCCNC(C)C)c(-c4ccc([S+](C)[O-])cc4)n3)nc2c1 (centres unmarked) [Example 41, 2-(5-(2-(Isopropylamino)ethoxy)-6-(4-(methylsulfinyl)phenyl)pyridin-2-yl)-5,7-dimethoxyquinazolin-4(3H)-one]
- MCP-1 Activity (IC50 < 30 μM) (hMCP-1 mRNA): Active
- FRET activity (IC50 < 30 μM) (Brd4 bromodomain 1): Active

Source: patent US9765039B2, “Biaryl derivatives as bromodomain inhibitors” (Zenith Epigenetics Ltd., priority 2012, dated 2017)
